# Results: US8003649B2 (AstraZeneca AB, priority 2007, dated 2011)
# Biological target: T1, Androgen Receptor (AR) (Homo sapiens, UniProt P10275, T878A)
# T1 construct: cell based immuno-fluorescence assay using the LNCaP prostate epithelial cell line; endogenous in cells; host or cells: LNCaP clone FGC (ATCC CRL-1740)
# T1 sequence (P10275 1-920 T878A): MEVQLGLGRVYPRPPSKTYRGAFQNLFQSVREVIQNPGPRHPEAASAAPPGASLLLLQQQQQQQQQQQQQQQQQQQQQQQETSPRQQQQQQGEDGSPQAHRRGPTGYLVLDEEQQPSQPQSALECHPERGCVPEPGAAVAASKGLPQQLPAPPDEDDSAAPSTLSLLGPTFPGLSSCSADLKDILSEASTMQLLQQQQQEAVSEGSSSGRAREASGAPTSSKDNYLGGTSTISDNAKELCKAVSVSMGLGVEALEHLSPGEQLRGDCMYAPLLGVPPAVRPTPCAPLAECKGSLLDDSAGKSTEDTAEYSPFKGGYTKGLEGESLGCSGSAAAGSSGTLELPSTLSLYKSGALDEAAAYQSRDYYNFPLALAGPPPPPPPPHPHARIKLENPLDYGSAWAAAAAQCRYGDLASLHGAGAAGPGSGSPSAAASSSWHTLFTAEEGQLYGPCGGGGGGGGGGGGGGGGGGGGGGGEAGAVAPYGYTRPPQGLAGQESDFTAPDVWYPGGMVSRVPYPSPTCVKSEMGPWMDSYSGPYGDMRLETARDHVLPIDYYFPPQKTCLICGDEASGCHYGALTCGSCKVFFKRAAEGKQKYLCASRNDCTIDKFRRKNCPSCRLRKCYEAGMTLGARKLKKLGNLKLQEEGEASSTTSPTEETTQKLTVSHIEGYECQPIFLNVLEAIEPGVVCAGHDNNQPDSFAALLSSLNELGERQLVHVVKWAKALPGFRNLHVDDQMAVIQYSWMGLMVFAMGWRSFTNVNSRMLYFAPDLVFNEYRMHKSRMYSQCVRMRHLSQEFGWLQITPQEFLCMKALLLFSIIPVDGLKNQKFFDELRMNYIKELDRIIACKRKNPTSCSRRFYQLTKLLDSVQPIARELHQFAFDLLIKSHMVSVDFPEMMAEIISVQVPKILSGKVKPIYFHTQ
# Test: LNCaP Androgen Receptor Down-regulation Cell Assay (immunofluorescence end point)
# Type: cell-based
# Settings: LNCaP prostate carcinoma cells, compound incubation 20-22 hours, 50% reduction of the AR signal; read-out: Androgen Receptor Down-regulation Assay (a) IC50/μM
# Outline: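 LNCaP cells in medium with 5% charcoal-stripped FBS were plated overnight, then treated with a compound dilution series for 20-22 h at 37° C. After fixation, permeabilisation and immunostaining, AR-associated green fluorescence was quantified by laser-scanning microplate cytometry; AR down-regulation expressed as IC50 from fitted dose-response curves.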
row,Structure (SMILES),DC50 [µM]
1,FC(F)(F)c1nnc2ccc(N3CCC(c4ccncc4)CC3)nn12 [Example 540],1.5
2,FC(F)(F)c1nnc2ccc(N3CCC(Oc4ccncc4)CC3)nn12 [Example 545],3.6
3,OC1(Cc2ccccc2)CCN(c2ccc3nnc(C(F)(F)F)n3n2)CC1 [Example 548],2.2
4,OC1(c2ccncc2)CCN(c2ccc3nnc(C(F)(F)F)n3n2)CC1 [Example 550],7.2
5,Fc1ccc(C2=CCN(c3ccc4nnc(C(F)(F)F)n4n3)CC2)cc1 [Example 552],7.8
6,"FC(F)(F)c1nnc2ccc(N3C[C@H]4CC[C@@H](C3)N4Cc3cccnc3)nn12 [Example 553, 6-[(1R,5S)-8-(pyridin-3-ylmethyl)-3,8-diazabicyclo[3.2.1]oct-3-yl]-3-(trifluoromethyl)[1,2,4]triazolo[4,3-b]pyridazine]",2.6
7,"Fc1ccc(CN[C@H]2[C@@H]3CN(c4ccc5nnc(C(F)(F)F)n5n4)C[C@@H]32)cc1 [Example 554, (1α,5α,6α) N-(4-fluorobenzyl)-3-[3-(trifluoromethyl)[1,2,4]triazolo[4,3-b]pyridazin-6-yl]-3-azabicyclo[3.1.0]hexan-6-amine]",4.9
8,FC(F)(F)c1nnc2ccc(N3C[C@@H]4[C@H](C3)[C@H]4NCc3cccc(Cl)c3)nn12 [Example 555],1.4
9,FC(F)(F)c1nnc2ccc(N3CCC(COc4cccnc4)CC3)nn12 [Example 560],8.8
10,FC(F)(F)c1nnc2ccc(N3CCC(COc4ccncc4)CC3)nn12 [Example 561],2.9
11,C[C@@H]1CN(c2ccc3nnc(C(F)(F)F)n3n2)CCN1Cc1ccc(C#N)cc1 [Example 565],3.5
12,C[C@@H]1CN(c2ccc3nnc(C(F)(F)F)n3n2)CCN1Cc1ccc(F)cc1 [Example 568],3.3
13,C[C@H]1CN(c2ccc3nnc(C(F)(F)F)n3n2)CCN1Cc1ccc(F)c(F)c1 [Example 572],3.4
14,C[C@H]1CN(c2ccc3nnc(C(F)(F)F)n3n2)CCN1Cc1ccc(F)c(C#N)c1 [Example 575],2.5
15,FC(F)(F)c1ccc(O[C@@H]2CCN(c3ccc4nnc(C(F)(F)F)n4n3)C2)cc1 [Example 579],4.1
16,Fc1ccc(O[C@@H]2CCN(c3ccc4nnc(C(F)(F)F)n4n3)C2)cc1 [Example 581],3.3
17,COc1ccc(O[C@@H]2CCN(c3ccc4nnc(C(F)(F)F)n4n3)C2)cc1 [Example 582],2.4
18,N#Cc1cccc(O[C@@H]2CCN(c3ccc4nnc(C(F)(F)F)n4n3)C2)c1 [Example 584],2.8
19,Fc1cccc(O[C@@H]2CCN(c3ccc4nnc(C(F)(F)F)n4n3)C2)c1 [Example 585],1.5
20,"FC(F)(F)c1nnc2ccc(N3CC[C@H](Oc4ccccn4)C3)nn12 [Example 589, 6-[(3S)-3-(pyridin-2-yloxy)pyrrolidin-1-yl]-3-(trifluoromethyl)[1,2,4]triazolo[4,3-b]pyridazine]",4.8

# Other lines, results leading:
row,DC50 [µM],Structure (SMILES)
1,3,FC(F)(F)c1nnc2ccc(N3CCC(Cc4ccccn4)CC3)nn12 [Example 537]
2,2.3,FC(F)(F)c1nnc2ccc(N3CCC(Cc4ccncc4)CC3)nn12 [Example 538]
3,1.5,FC(F)(F)c1nnc2ccc(N3CCC(Cc4cccnc4)CC3)nn12 [Example 539]
4,2.6,FC(F)(F)c1nnc2ccc(N3CCC(n4ccc5ccccc54)CC3)nn12 [Example 542]
5,2.9,FC(F)(F)c1nnc2ccc(N3CCC(Oc4cnccn4)CC3)nn12 [Example 544]
6,1.6,OC1(c2ccccc2F)CCN(c2ccc3nnc(C(F)(F)F)n3n2)CC1 [Example 549]
7,4.4,Fc1cccc(CN[C@H]2[C@@H]3CN(c4ccc5nnc(C(F)(F)F)n5n4)C[C@@H]32)c1 [Example 556]
8,2.6,FC(F)(F)c1nnc2ccc(N3CCC(COc4ncccn4)CC3)nn12 [Example 558]
9,2,"FC(F)(F)c1nnc2ccc(N3CCC(COc4cccc(Cl)n4)CC3)nn12 [Example 562, 6-[4-[[(6-chloropyridin-2-yl)oxy]methyl]piperidin-1-yl]-3-(trifluoromethyl)[1,2,4]triazolo[4,3-b]pyridazine]"
10,6.7,"C[C@@H]1CN(c2ccc3nnc(C(F)(F)F)n3n2)CCN1Cc1cccnc1 [Example 564, 6-[(3R)-3-methyl-4-(pyridin-3-ylmethyl)piperazin-1-yl]-3-(trifluoromethyl)[1,2,4]triazolo[4,3-b]pyridazine]"
11,> 16,C[C@@H]1CN(c2ccc3nnc(C(F)(F)F)n3n2)CCN1Cc1cc(F)cc(F)c1 [Example 567]
12,2.7,C[C@@H]1CN(c2ccc3nnc(C(F)(F)F)n3n2)CCN1Cc1ccc(F)c(C#N)c1 [Example 569]
13,4.5,"C[C@H]1CN(c2ccc3nnc(C(F)(F)F)n3n2)CCN1Cc1cccnc1 [Example 570, 6-[(3S)-3-methyl-4-(pyridin-3-ylmethyl)piperazin-1-yl]-3-(trifluoromethyl)[1,2,4]triazolo[4,3-b]pyridazine]"
14,0.96,C[C@H]1CN(c2ccc3nnc(C(F)(F)F)n3n2)CCN1Cc1ccc(C#N)cc1 [Example 571]
15,5,"FC(F)(F)c1nnc2ccc(N3CC[C@@H](Oc4cccnc4)C3)nn12 [Example 576, 6-[(3R)-3-(pyridin-3-yloxy)pyrrolidin-1-yl]-3-(trifluoromethyl)[1,2,4]triazolo[4,3-b]pyridazine]"
16,5,"FC(F)(F)c1nnc2ccc(N3CC[C@@H](Oc4ccncc4)C3)nn12 [Example 577, 6-[(3R)-3-(pyridin-4-yloxy)pyrrolidin-1-yl]-3-(trifluoromethyl)[1,2,4]triazolo[4,3-b]pyridazine]"
17,2.5,"FC(F)(F)c1nnc2ccc(N3CC[C@@H](Oc4ccccn4)C3)nn12 [Example 578, 6-[(3R)-3-(pyridin-2-yloxy)pyrrolidin-1-yl]-3-(trifluoromethyl)[1,2,4]triazolo[4,3-b]pyridazine]"
18,2,N#Cc1ccc(O[C@@H]2CCN(c3ccc4nnc(C(F)(F)F)n4n3)C2)cc1 [Example 580]
19,4.1,FC(F)(F)c1cccc(O[C@@H]2CCN(c3ccc4nnc(C(F)(F)F)n4n3)C2)c1 [Example 583]
20,2.1,COc1cccc(O[C@@H]2CCN(c3ccc4nnc(C(F)(F)F)n4n3)C2)c1 [Example 586]
21,> 17,"FC(F)(F)c1nnc2ccc(N3CC[C@H](Oc4cccnc4)C3)nn12 [Example 587, 6-[(3S)-3-(pyridin-3-yloxy)pyrrolidin-1-yl]-3-(trifluoromethyl)[1,2,4]triazolo[4,3-b]pyridazine]"
22,5.3,"FC(F)(F)c1nnc2ccc(N3CC[C@H](Oc4ccncc4)C3)nn12 [Example 588, 6-[(3S)-3-(pyridin-4-yloxy)pyrrolidin-1-yl]-3-(trifluoromethyl)[1,2,4]triazolo[4,3-b]pyridazine]"
23,20,N#Cc1ccc(O[C@H]2CCN(c3ccc4nnc(C(F)(F)F)n4n3)C2)cc1 [Example 591]
24,9.6,FC(F)(F)c1ccc(O[C@H]2CCN(c3ccc4nnc(C(F)(F)F)n4n3)C2)cc1 [Example 592]
25,7.2,"C[C@H]1CN(Cc2cccnc2)CCN1c1ccc2nnc(C(F)(F)F)n2n1 [Example 593, 6-[(2S)-2-methyl-4-(pyridin-3-ylmethyl)piperazin-1-yl]-3-(trifluoromethyl)[1,2,4]triazolo[4,3-b]pyridazine]"
26,6.8,C[C@H]1CN(Cc2ccc(F)c(F)c2)CCN1c1ccc2nnc(C(F)(F)F)n2n1 [Example 595]
